The test system of data set [1] is normal bronchial epithelial cell. Nature of the data set: normal bronchial epithelial cell adhesion to LAP (FIG. 3A). The class given is cell-based.
For data set [2], the system named is IPF-derived lung fibroblasts. Nature of the data set: cell adhesion in IPF-derived lung fibroblasts (FIG. 3B). The data set is classed as cell-based.
The subject of data set [3] is human bronchial epithelial cells. Description: LAP adhesion binding assay, normal human bronchial epithelial cells (xCELLigence cell index). The class given is cell-based. To be noted: FIG. 3A; cell index (electrical impedance). How it is done:
Two latency associated peptide (LAP) adhesion binding assays were devised using primary human lung cells, including normal (healthy) human bronchial epithelial cells and human lung fibroblasts (healthy and IPF).
Human bronchial epithelial cells are known to express αvβ6 integrin in culture. Human bronchial epithelial cells were prepared for the assay by dissociation with trypsin/EDTA and were then seeded at 20,000 cells per well on 96 well plates (ACEA Bioscience E-plate View, Acea Biosciences; San Diego, Calif.) previously coated with 5 μg/ml of recombinant human LAP (R&D Systems; Minneapolis, Minn.) and blocked with 4% bovine serum albumin. Cell index (electrical impedance) was measured to assess cell attachment/spreading every 3 minutes for 24 hours at 37° C./5% CO2 using the xCELLigence RTCA MP Instrument (Acea Biosciences; San Diego, Calif.).

For the next data set, the system named is healthy mice. Nature of the data set: pSMAD3/SMAD3 in lung tissue and BALF of healthy mice. The class given is in vivo. The following applies: 4 days of compound 5 treatment, FIG. 4B. The source says: It has been previously shown that inhibition of αvβ6 in the lung can be detected though measurement of phospho-SMAD (pSMAD) in alveolar macrophages. Alveolar macrophages are known to operate in a unique niche in the lung, distinct from interstitial macrophages. SMAD3 is a downstream target of the active TGF-β cytokine binding its receptor and in alveolar macrophages it is phosphorylated by homoeostatic levels of TGF-β. Accordingly, it was desirable to know whether inhibition of TGF-β activation using the disclosed compounds would result in reduced SMAD2 and SMAD3 phosphorylation.
Mice (C57BL/6) were divided into healthy (n=15), vehicle-treated (n=15), and test article-treated (n=15 per dose) groups. […] […] […] […] […] […] […] Samples were prepared for analysis either directly from lung tissue, or by bronchoalveolar lavage, which washes out the bronchiolar and alveolar space with saline to produce a bronchoalveolar lavage fluid (BALF) in which 80-90% of cells are alveolar macrophages.
FIG. 4A is a graph of PSMAD3/SMAD3 in lung tissue from healthy mice administered PBS vehicle and varying levels of compound 5 for 4 days. FIG. 4B is a graph of PSMAD3/SMAD3 in BALF drawn from the same healthy mice administered PBS vehicle and varying levels of compound 5 for 4 days.

The test system of a further data set is lung Col1a1 expression. Description: Precision cut lung slices from human IPF explants, 3 days, Col1a1 expression. The class given is cell-based. The following applies: human IPF PCLS, 3G9 ≥400 ng/mL, compound 5 179 nM, ALK5 inhibitor 1 μM, FIG. 6C. An excerpt: Explanted lung tissue was obtained from human IPF subjects and inflated with agarose as described in the preceding examples. Biopsy cores were obtained from the agarose-inflated lung tissue. The biopsy cores were subjected to precision slicing to obtain several hundred μm thick. Individual slices were distributed in a multiwell culture plate and cultured for […] under control (DMSO) and test compound conditions. The viability of the slices over the course of culturing was confirmed by WST-1 assay of mitochondrial activity.

Data set [4] is described as follows: Binding to plasma proteins, equilibrium dialysis. The following applies: human, plasma of dosed study participants, oral, participants' plasma Day 7. The data set is classed as in vitro ADME. How it is done: Binding to plasma proteins was determined in participants' plasma (Day 7) using a qualified equilibrium dialysis protocol. The mean % unbound was 0.292%±0.067%, and ranged from 0.182% to 0.38% across the 20-mg cohort participants. The mean % unbound was 0.318%+0.065% and ranged from 0.22% to 0.376% across the 40-mg cohort participants. Due to the unexpected amount of plasma protein binding in these participants, it was decided to examine higher doses of the dual […] inhibitor (Compound 5) to determine whether such higher doses would compensate for the high protein binding and provide greater amounts of free drug.
For orientation: In equilibrium dialysis only unbound substance equilibrates across the membrane.

The nature of data set [5]: Safety at the higher doses of Examples B14 and B15. The class given is in vivo, human. To be noted: healthy participants, higher doses of Examples B14 and B15 (80-640 mg). How it is done: This study was a single-center, randomized, double-blind, ascending dose, placebo-controlled study in healthy participants. Each cohort included 10 participants (8 active, 2 placebo). Study participants received single ascending doses (SAD) of Compound 5 of 120, 160, 240, 320, 480, and 640 mg and multiple ascending doses (MAD) of Compound 5 of 80, 120, 160, 240, and 320 mg. Two cohorts of participants at 160 mg were studied in the MAD phase of the study.
This study was designed as a randomized, double-blind, placebo-controlled study in 48 healthy participants conducted in 2 parts. Part 1 has completed clinical conduct, and Part 2 is ongoing. In Part 1, 24 participants were randomized 1:1:1 to receive Compound 5 80 mg QD, Compound 5 160 mg QD, or placebo QD. A safety review committee reviewed the safety and PK data from Part 1 and recommended doses for Part 2. […] BALF samples were assessed for TGF-β receptor kinase activity (pSMAD2/SMAD2) in pelleted cells (primarily alveolar macrophages) and additional cell material was used to measure TGF-β signaling pathway-related gene expression levels. […] Safety was monitored via open-ended AE inquiry and clinical chemistry, hematology, vital sign, and 12-lead ECG parameters.

Read-outs that look alike come from different tables or passages of the source.

For the compound `COCCN(CCCCc1ccc2c(n1)NCCC2)CC[C@H](Nc1ncnc2ccccc12)C(=O)O` [Compound 5, (S)-4-((2-methoxyethyl) (4-(5,6,7,8-tetrahydro-1,8-naphthyridin-2-yl)butyl)amino)-2-(quinazolin-4-ylamino) butanoic acid], the “normal bronchial epithelial cell adhesion to LAP” value in data set [1] is on record as “substantially inhibited”. Further, the “cell adhesion in the IPF-derived lung fibroblasts” value in data set [2] is listed as “substantially inhibited”. In data set [3], the “inhibition of normal bronchial epithelial cell adhesion to LAP” value is recorded as “substantially inhibited”. Besides, in the data set with healthy mice, the “PSMAD3/SMAD3 in cells isolated from BALF” value was “approximately 50 % of the untreated levels”. Also, the “lung Col1a1 expression” value in the data set with lung Col1a1 expression is given as “substantial, statistically significant (p<0.01 vs vehicle) decrease”. For the same compound, the fraction unbound in data set [4] (20 mg, 20-mg cohort, read-out: % unbound, range across participants) is 0.00182 to 0.0038; in data set [4] (20 mg, 20-mg cohort, read-out: mean % unbound) it was 0.00292; in data set [4] (40 mg, 40-mg cohort, read-out: % unbound, range across participants), 0.0022 to 0.00376; in data set [4] (40 mg, 40-mg cohort, read-out: mean % unbound) it was 0.00318. In data set [5], the adverse effects entry is on record as “no significant adverse effects”.

The values are drawn from patent US20230028658A1, “EXPANDED DOSAGE REGIMENS FOR INTEGRIN INHIBITORS” (Pliant Therapeutics, Inc., priority 2021, published 2023).
